This passage reports EC50 results from ChEMBL document CHEMBL1142023, “Structure-activity relationships of dimeric PPAR agonists” (Bioorg Med Chem Lett, 2005).

Experiment [1] has as its target T1, Peroxisome proliferator-activated receptor alpha (Homo sapiens, UniProt Q07869).
T1 sequence (Q07869 whole entry): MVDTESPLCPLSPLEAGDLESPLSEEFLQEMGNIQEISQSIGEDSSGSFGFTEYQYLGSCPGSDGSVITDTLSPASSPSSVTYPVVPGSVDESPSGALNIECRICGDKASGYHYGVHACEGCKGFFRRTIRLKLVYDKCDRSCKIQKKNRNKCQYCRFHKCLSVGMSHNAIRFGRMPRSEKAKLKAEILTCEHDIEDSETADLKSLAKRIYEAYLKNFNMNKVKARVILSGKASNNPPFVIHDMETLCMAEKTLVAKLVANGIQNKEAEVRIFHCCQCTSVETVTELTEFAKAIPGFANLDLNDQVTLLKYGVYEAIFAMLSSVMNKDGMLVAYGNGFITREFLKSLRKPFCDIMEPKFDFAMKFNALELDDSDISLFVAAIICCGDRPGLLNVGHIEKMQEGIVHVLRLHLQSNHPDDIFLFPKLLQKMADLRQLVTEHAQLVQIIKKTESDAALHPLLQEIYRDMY
Description: Effective concentration for human peroxisome proliferator-activated receptor alpha.

Experiment [2] deals with T2, Peroxisome proliferator-activated receptor delta (Homo sapiens, UniProt Q03181).
T2 sequence (Q03181 whole entry): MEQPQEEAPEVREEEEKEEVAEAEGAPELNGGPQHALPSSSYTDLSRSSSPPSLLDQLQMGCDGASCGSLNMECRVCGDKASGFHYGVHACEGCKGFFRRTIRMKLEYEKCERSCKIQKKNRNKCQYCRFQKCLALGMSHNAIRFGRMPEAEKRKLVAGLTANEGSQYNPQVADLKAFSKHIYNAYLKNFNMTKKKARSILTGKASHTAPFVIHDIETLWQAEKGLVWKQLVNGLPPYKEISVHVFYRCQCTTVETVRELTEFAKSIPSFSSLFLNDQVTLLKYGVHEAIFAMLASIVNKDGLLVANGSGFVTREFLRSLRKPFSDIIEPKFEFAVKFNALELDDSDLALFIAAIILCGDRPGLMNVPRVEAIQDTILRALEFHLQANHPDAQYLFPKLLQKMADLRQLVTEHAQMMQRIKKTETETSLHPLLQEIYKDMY
Nature of the experiment: Effective concentration for human peroxisome proliferator-activated receptor delta.

Molecules are shown by their SMILES.

With `CCO[C@H](Cc1ccc(OC/C=C/C#Cc2ccccc2)cc1)C(=O)O`, the EC50 in experiment [1] was 70 nM; in experiment [2] it was 6900 nM.
In the case of `CCO[C@@H](Cc1ccc(OCc2ccc(COc3ccc(C[C@H](OCC)C(=O)O)cc3)cc2)cc1)C(=O)O`, it took 15000 nM to reach a half-maximal effect in experiment [1] (EC50).
With `CCO[C@H](Cc1ccc(OC/C=C(/C)C#Cc2ccc(-c3ccc(C#C/C(C)=C/COc4ccc(C[C@@H](OCC)C(=O)O)cc4)cc3)cc2)cc1)C(=O)O`, the EC50 in experiment [1] was found to be 1800 nM; in experiment [2], 4100 nM.
The like results for `CCO[C@H](Cc1ccc(OC/C=C(\C)c2ccc(-c3ccc(/C(C)=C/COc4ccc(C[C@@H](OCC)C(=O)O)cc4)cc3)cc2)cc1)C(=O)O` were, in that order, 6700 nM and 2100 nM.
Regarding `CCO[C@H](Cc1ccc(OC/C=C(\C)C#Cc2ccc3c(c2)C(=O)c2cc(C#C/C(C)=C/COc4ccc(C[C@@H](OCC)C(=O)O)cc4)ccc2-3)cc1)C(=O)O` (stereo in doubt), in experiment [1], the EC50 is 2300 nM. In other words, the single-digit micromolar range.
For the compound `CCOC(Cc1ccc(OC/C=C/c2ccccc2)cc1)C(=O)O` (single isomer, unassigned), the 50% effective concentration (EC50) in experiment [1] was 1600 nM; in experiment [2], 18000 nM.
For `CCOC(Cc1ccc(OC/C=C(\C)C#Cc2ccc(C#C/C(C)=C/COc3ccc(C[C@@H](OCC)C(=O)O)cc3)cc2)cc1)C(=O)O` (single isomer, unassigned), the EC50 in experiment [1] came out at 1200 nM; in experiment [2] it was 1800 nM.
Turning to `CCOC(Cc1ccc(OCC/C=C/c2ccccc2)cc1)C(=O)O` (single isomer, unassigned), the concentration giving a half-maximal response (EC50) in experiment [1] is 1100 nM; in experiment [2], 19000 nM.
On to `CCOC(Cc1ccc(OC/C=C/C#CC#C/C=C/COc2ccc(C[C@@H](OCC)C(=O)O)cc2)cc1)C(=O)O` (single isomer, unassigned), for which the results for the EC50 in experiment [1] and in experiment [2] were 3700 nM and 15000 nM, respectively.
The corresponding values for `CCO[C@@H](Cc1ccc(OC/C=C(/C)C#Cc2ccccc2)cc1)C(=O)O` are 300 nM and 11000 nM.
Turning to `CCOC(Cc1ccc(OCC#CCOc2ccc(C[C@@H](OCC)C(=O)O)cc2)cc1)C(=O)O` (single isomer, unassigned), the EC50 in experiment [1] came to 9600 nM.
In the case of `CCOC(Cc1ccc(OC/C=C/C#Cc2ccc(C#C/C=C/COc3ccc(C[C@@H](OCC)C(=O)O)cc3)cc2)cc1)C(=O)O` (single isomer, unassigned), the EC50 amounted to 700 nM in experiment [1] and 2200 nM in experiment [2].

Usually EC50 stands for the concentration at which the effect is half-maximal. A lower EC50 goes with higher potency in that assay.
